These results are taken from patent US20230399314A1, “CD73 INHIBITOR AND USE THEREOF” (WUHAN HUMANWELL INNOVATIVE DRUG RESEARCH AND DEVELOPMENT …, priority 2020, published 2023).

Series [1] can be described thus: Plasma protein binding by equilibrium dialysis, canine plasma. The class given is in vitro ADME. The following applies: dog, 37° C. The procedure:
(§1) Plasma protein binding rates of the compounds were detected by equilibrium dialysis (HTDialysis, HTD 96b). The compound was diluted with DMSO to form a 0.5 mM stock solution, and the stock solution was diluted 25 times with a 0.05 M sodium phosphate buffer to form a 20 μM working solution. Plasma was placed in a new 96-well plate according to 380 μL/well, then the working solution was added to and uniformly mixed with the plasma according to 20 μL/well, the final concentration of the compound was 1 μM, and each well contained 0.2% DMSO.
(§2) 100 μL of 0.05 M sodium phosphate buffer was added to a receiving side of each dialysis chamber (HTD 96b), and 100 μL of plasma containing the compound was added to a supply side. The dialysis apparatus was closed with a plastic lid, and incubated with shaking at 37° C. for 5 h.
(§3) After the incubation was completed, 25 μL of sample was collected respectively from the supply side and the receiving side of the dialysis chamber, and placed in a new 96-well plate, an equal volume of blank plasma was added to and uniformly mixed with each sample on the supply side, an equal volume of 0.05 M sodium phosphate buffer was added to and uniformly mixed with each sample on the receiving side. 200 μL of acetonitrile solution containing the internal standard was added to each well, the 96-well plate was vortex-shaken at 600 rpm for 10 min, and centrifuged at 5,594 g for 15 min (Thermo Multifuge×3R), 50 μL of supernatant was transferred to a new 96-well plate, and the sample was mixed with 50 μL of ultrapure water and subjected to LC-MS/MS analysis.
(§4) A plasma protein binding rate and a fraction unbound in plasma were calculated according to the following formulas:
(§5) % binding rate=100×([supply side concentration]5h−[receiving side concentration]5h)/[supply side concentration]5h; and
(§6) % fraction unbound in plasma=100−% binding rate.

The nature of series [2]: Pharmacokinetic test on mice. The class given is in vivo, male ICR mice. The following applies: male, ICR, plasma, mouse; for AUC(0-t): read-out: AUC0-t; for Cmax: read-out: Cmax; for Tmax: read-out: Tmax. The procedure:
(§7) In a pharmacokinetic test on mice, male ICR mice of 20 g to 25 g were used and fasted overnight. 3 mice were selected for orally intragastric administration (10 mg/kg). Before administration, and 15 min, 30 min, 1 h, 2 h, 4 h, 8 h, and 24 h after administration, blood was sampled from each mouse. Another 3 mice were selected for intravenous injection administration (3 mg/kg), and before administration, and 15 min, 30 min, 1 h, 2 h, 4 h, 8 h, and 24 h after administration, blood was sampled from each mouse. The blood sample was centrifuged at 6,800 g and 2 to 8° C. for 6 min, and plasma was collected and stored at −80° C. The plasma of each time point was vortex-mixed for 1 min with an acetonitrile solution containing the internal standard with a volume 3-5 times that of the plasma of each time point, and centrifuged at 13,000 rpm and 4° C. for 10 min, a supernatant was collected and mixed with water with a volume 3 times that of the supernatant, and an appropriate amount of the mixed solution was used for LC-MS/MS analysis. The main pharmacokinetic parameters were analyzed by using a WinNonlin 7.0 non-compartmental model.

A short description of series [3]: Plasma protein binding by equilibrium dialysis, human plasma. The format is in vitro ADME. The note with it: 37° C. The method, then: as §1, §2, §3, §4, §5, §6
(In equilibrium dialysis only unbound substance equilibrates across the membrane.)

Series [4] concerns Human CD4+ T cells. Briefly: Relieving AMP-induced proliferation inhibition of human CD4+ T cells (CCK8). The format is cell-based. The note with it: Homo sapiens, 120 h, AMP 0.3 mM, day 5. The procedure: On day 1 of the experiment, CD4^+ T cells (Allcells Shanghai, PB009-2F-C) were thawed, and inoculated into two replicate wells according to 3×10^4 cells/well and 50 μL/well. The compound was diluted with a complete medium to form a stock solution (4×) of an appropriate concentration gradient, the compound solution was added to the above cells according to 50 μL/well, and the mixture was pre-incubated at 37° C. for 30 min. […] Meanwhile, a positive reference group (Human CD4^+ T+IL-2+CD3/CD28 beads) and a negative reference group (Human CD4^+ T+IL-2+CD3/CD28 beads+AMP) were set. AMP (Sigma; A1752-5G) was diluted with a complete medium to form an AMP solution (4×), the AMP solution was added to the above cells according to 50 μL/well, the final concentration was 0.3 mM, and the mixture was incubated at 37° C. On day 3 of the experiment, the AMP solution was added to the above plate according to 20 μL/well, and the final concentration was 0.3 mM. On day 5, the proliferation of the cells was detected by using a CCK8 kit (DojinDO; CK04).
Inhibition rates of the compound at different concentrations in relieving AMP-induced proliferation inhibition of CD4^+ T cells were calculated according to the following formula, the concentration of the compound was taken as the X-axis, the inhibition rate was taken as the Y-axis, and an EC50 value of the compound in relieving the AMP-induced proliferation inhibition of CD4^+ T cells was calculated by using Prism software.

Series [5] can be described thus: Pharmacokinetic test on dogs. The format is in vivo, male Beagle dogs. The note with it: male, Beagle, plasma, dog; for Vd: read-out: Vz. The procedure: as §7
In a pharmacokinetic test on dogs, male Beagle dogs of 8 to 10 kg were used and fasted overnight. 3 Beagle dogs were selected for orally intragastric administration (5 mg/kg). Another 3 Beagle dogs were selected for intravenous injection administration (1 mg/kg). Other operations were the same as the pharmacokinetic test on mice.

A short description of series [6]: Plasma protein binding by equilibrium dialysis, mouse plasma. The format is in vitro ADME. The note with it: 37° C. The method, then: as §1, §2, §3, §4, §5, §6
The test system of series [7] is A375 melanoma. The series can be described thus: In vivo efficacy on A375 melanoma (PBMC + A375 cells in NCG mice). The following applies: compound 40 mg/kg + anti PD-1 10 mg/kg; for Mean ± SEM (tumor size): in mm³ (unit assumed). The method, then: A375 cells in logarithmic growth phase were collected, cultured in Mitomycin C for 2 h, and washed three times with PBS. After 5 days of co-culture of PBMC and A375 cells, PBMC and freshly digested A375 cells were collected, 5×10^5 PBMC and 4×10^6 A375 cells were inoculated subcutaneously on the right side of NCG mice according to 0.2 mL/mouse (containing 50% Matrigel). After inoculation, the mice were randomly divided into a model group and an administration group according to body weight of the mice, tumor size and animal weight were measured and recorded before and during administration, and tumor sizes of the model group and the administration group were compared after treatment to determine the efficacy.

The target in series [8] is CD73 bound to the surfaces of A375 cells (Homo sapiens (Human), UniProt P21589). Briefly: Inhibitory activity to CD73 enzyme bound to the surfaces of human melanoma A375 cells. The following applies: AMP 200 μM, 16 h. The class given is cell-based. The procedure: The compound was diluted with serum-free DMEM to form a stock solution (5×) of an appropriate concentration gradient, the compound solution was added to the cells in the above 96-well plate according to 20 μL/well, and the mixture was placed in an incubator and pre-incubated for 30 min.
A375-bound CD73 inhibition rates of the compound at different concentrations were calculated according to the following formula, the concentration of the compound was taken as the X-axis, the inhibition rate was taken as the Y-axis, and an IC50 value of the compound in inhibiting A375-bound CD73 was calculated by using Prism software.

[9] abbreviates: po, orally intragastric 10 mg/kg.
The mark [10] stands for this setting: po, orally intragastric 5 mg/kg.

One may read the fraction unbound as the share of the substance not bound to proteins or other matrix. A high value points to weak binding. By half-life is commonly meant how long it takes for the measured level to halve. Higher therefore signals slow decline. Usually Cmax stands for the maximum level reached in the sampled fluid or tissue. Usually Tmax stands for the time at which the peak concentration occurs. Broadly, the clearance is the rate of elimination divided by the concentration. Read a low clearance as inefficient removal. As a reminder, the EC50 is the concentration that produces a half-maximal response. A low value points to an effect from little substance. A word on the IC50: it is the midpoint of a concentration-inhibition curve.

Sequence of CD73 bound to the surfaces of A375 cells (P21589 27-574): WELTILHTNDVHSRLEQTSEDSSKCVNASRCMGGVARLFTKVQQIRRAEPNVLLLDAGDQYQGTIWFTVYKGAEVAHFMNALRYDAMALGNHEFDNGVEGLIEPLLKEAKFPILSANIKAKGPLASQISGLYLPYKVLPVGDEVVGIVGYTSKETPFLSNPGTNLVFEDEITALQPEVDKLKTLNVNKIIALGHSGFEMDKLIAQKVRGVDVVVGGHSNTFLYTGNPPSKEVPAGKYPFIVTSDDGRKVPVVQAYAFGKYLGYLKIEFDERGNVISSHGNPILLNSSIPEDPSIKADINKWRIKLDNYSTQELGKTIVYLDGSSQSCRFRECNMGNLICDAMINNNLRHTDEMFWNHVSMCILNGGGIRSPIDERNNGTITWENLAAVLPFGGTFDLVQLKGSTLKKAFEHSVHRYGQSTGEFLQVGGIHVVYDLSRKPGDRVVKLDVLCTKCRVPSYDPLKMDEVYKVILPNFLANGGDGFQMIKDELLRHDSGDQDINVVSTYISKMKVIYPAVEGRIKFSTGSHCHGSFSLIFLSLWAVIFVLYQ

In series [1], `Cc1nnc(-c2c[nH]c(=O)[nH]c2=O)cc1[C@H]1C[C@@H]1C(C)C` [Reference compound 3, 5-(5-((1S,2R)-2-isopropylcyclopropyl)-6-methylpyridazin-3-yl)pyrimidine-2,4(1H,3H)-dione, reference compound] gave a fraction unbound at 5 h, 1 μM of 0.126. Further, in series [2] (setting [9]), the half-life is 71.4 min, the AUC(0-t) is 1270 ng·h/mL, the Cmax was 1270 ng/mL and the time of peak concentration (Tmax) came to 19.8 min. For the same compound, in series [2] (intravenous injection 3 mg/kg), the clearance is 70 mL/min/kg, the half-life was 16.8 min and the AUC(0-t) is 730 ng·h/mL. The Vd in series [2] (intravenous injection 3 mg/kg, read-out: Vz) worked out at 1.67 L/kg. This compound gave a fraction unbound at 5 h, 1 μM in series [3] of 0.103. The compound also came in with a concentration giving a half-maximal response (EC50) in series [4] of 341 nM. For the same compound, in series [5] (setting [10]), the AUC(0-t) was 1540 ng·h/mL, the Cmax amounted to 1200 ng/mL, the Tmax is 25.2 min and the half-life was 55.8 min. In series [5] (intravenous injection 1 mg/kg), the AUC(0-t) is 512 ng·h/mL, the clearance was 36 mL/min/kg, the half-life is 23.4 min and the Vd worked out at 1.14 L/kg. Besides, the fraction unbound at 5 h, 1 μM in series [6] was 0.122. Besides, in series [7], the “% TGI” value is listed as 41.52% and the “Mean ± SEM (tumor size)” value is 1149 ± 167.8.
Turning to `O=c1[nH]cc(-c2cc([C@H]3C[C@@H]3CF)c(Cl)nn2)c(=O)[nH]1` [Compound 1, 5-(6-chloro-5-((1S,2S)-2-(fluoromethyl)cyclopropyl)pyridazin-3-yl)pyrimidine-2,4(1H,3H)-dione], the fraction unbound at 5 h, 1 μM in series [1] worked out at 0.245. Besides, in series [2] (setting [9]), the half-life was 199 min, the AUC(0-t) was found to be 5720 ng·h/mL, the Cmax was 4300 ng/mL and the time of peak concentration (Tmax) worked out at 25.2 min. Moreover, in series [3], the unbound share (fraction unbound) at 5 h, 1 μM stood at 0.274. Also, the concentration for a half-maximal effect (EC50) in series [4] turned out to be 71.9 nM. In series [5] (setting [10]), the AUC(0-t) came out at 16900 ng·h/mL, the peak level (Cmax) was 5480 ng/mL, the Tmax turned out to be 70.2 min and the half-life was 160 min. Further, in series [5] (intravenous injection 1 mg/kg), the AUC(0-t) was 1460 ng·h/mL, the clearance was 12.2 mL/min/kg, the half-life was 56.4 min and the Vd was 0.99 L/kg. This compound came in with a fraction unbound at 5 h, 1 μM in series [6] of 0.474. Also, in series [7], the “% TGI” value worked out at 63.68% and the “Mean ± SEM (tumor size)” value was 713.7 ± 89.22. The concentration for half-maximal inhibition (IC50) in series [8] turned out to be 30.7 nM.
